Reference: patent US20260240852A1, “Use of Oral JAK Kinase Inhibitors to Treat Lichen Planus” (Mayo Foundation for Medical Education and Research, priority 2023, published 2026)
Where “and” joins values, the source holds several entries; their conditions need not be identical. Equal entries are not always repeated.

Columns and labels:
Type in all cases: in vivo, human
[1] = tested on: patients with biopsy-proven cutaneous LP; test: Open-label, single-arm phase 2 trial of oral baricitinib in cutaneous lichen planus: clinical efficacy
Procedure: A clinical study was conducted in which 12 patients with biopsy-proven LP were trialed on oral baricitinib at a daily dose of 2 mg for 16 weeks. Other inclusionary criteria included having at least 4 lesions of LP at baseline. The mean age of participants was 63.6 years. The vast majority were female and identified as Caucasian. A quarter were under-represented minorities. The mean duration of disease for all patients was 2.2 years. Five of the 12 participants had hypertrophic LP, and 11 were refractory to prior therapy. All but one patient had previously trialed topical steroids. Almost half (41.7%) had failed oral or IM steroids.
The primary outcome of this study was PGA at week 16, with treatment response defined as greater than 50% improvement with a PGA grade of 0 to 3. Non-responsive was defined as PGA 4 and 5. Secondary endpoints included changes from baseline to week 16 in mCAILS, pruritus scores, Skindex-16, BSA, and total lesion count.
Trial Design. A single-arm, open-label, phase 2, […] trial was conducted at Mayo Clinic, Arizona (ClinicalTrials.gov identifier NCT05188521). The Mayo Clinic Institutional Review Board approved the study (IRB 21-003075), and all patients provided written informed consent. Twelve patients with biopsy-proven cutaneous LP were administered oral baricitinib 2 mg once daily for 16-weeks. The primary endpoint was an overall response by Physician Global Assessment (PGA) of skin at week 16, with treatment response defined as PGA 0 to 3 (with ≥50% score reduction). Secondary outcomes were changes in mCAILS, total body lesion count, affected BSA, pruritus numeric rating scale (NRS), pruritus verbal rating scale (VRS), pruritus visual analog scale (VAS), pain NRS, and Skindex-16. Patients were evaluated at baseline (week 0) and weeks 2, 4, 8, 12, and 16. […] Complete responders at week 16 were reassessed at week 20 and partial responders at week 16 were reassessed at week 32, after an off-therapy period of 4 weeks, respectively.
(§1) Assessments of treatment efficacy, adverse events (AEs), and QoL were completed at each study visit. All lesions were annotated, photographed, and scored using the mCAILS criteria. 16 All clinical assessments were performed by the principal investigator and co-investigators (ARM, MRP, SZ) with questionable lesions scored by 2 investigators. The revised National Cancer Institute Common Terminology Criteria for Adverse Events version 5.0 was used for AE reporting. Due to travel issues, one patient withdrew from the study after week 8. An intention-to-treat (ITT) analysis was used with the patient's last observation to impute week 16 data.
Eligibility Criteria. Patients aged ≥18 years with biopsy-proven cutaneous LP were eligible for the trial. Both treatment-naïve and treatment-refractory disease were included. Key exclusion criteria included predominantly non-cutaneous variants of LP, active infections, and other active inflammatory cutaneous conditions.
Statistical Analysis. Patient demographics, clinical characteristics, and outcomes were summarized as mean, standard deviation, median, interquartile range for continuous variables, and frequency and percentages for categorical variables. Primary and secondary outcome differences between baseline and week 16 were compared using Wilcoxon signed rank test for continuous variables and McNemar's test for binary variables. One patient withdrew from the study after week 8, and this patient's last observation (week 8) was used to impute week 16 data in the ITT analysis.
Exact binomial method was used to calculate the treatment response rate at week 16 and its corresponding 95% confidence interval. All analyses were conducted with R version 4.1.2 (R Foundation for Statistical Computing, Vienna, Austria). The cut-off for statistical significance was set as 0.05.

[2] = Adverse event assessment in the baricitinib LP trial (CTCAE version 5.0)
Procedure: as §1

[3] = tested on: patients with biopsy-proven cutaneous LP; test: Open-label, single-arm phase 2 trial of oral baricitinib in cutaneous lichen planus: clinical efficacy; conditions: dose escalation, after 12 weeks of 4 mg daily, five patients
[4] = five dose-escalation patients at week 16 (after 2 mg daily), start of dose escalation
[5] = oral 2 mg once daily, baseline to week 16, ITT
[6] = oral 2 mg once daily, baseline to week 16, ITT, P 0.002
[7] = oral 2 mg once daily, baseline to week 16, ITT, P 0.003

SMILES: CCS(=O)(=O)N1CC(CC#N)(n2cc(-c3ncnc4[nH]ccc34)cn2)C1 [baricitinib]
- Patients with PGA grade 1 [1, 4]: 80.0%
- Patients with PGA grade 4 [1, 4]: 20%
- Mean total body lesion count ([1]; oral 2 mg daily, by week 16, 146 at baseline (first report)): 8
- Treatment response (PGA), patients ([1]; oral 2 mg daily, week 1): 37.5%
- Treatment response (PGA), patients ([1]; oral 2 mg daily, week 12): 100%
- Patients with a PGA grade of 0 or 1 (completely clear and almost clear) ([1]; oral 2 mg daily, week 16 (primary endpoint), all but one patient): 90.9%
- BSA affected (%), Range, Difference [1, 5]: −9.8 to −0.1%
- Pain NRS, Range, Difference [1, 5]: −8.0 to 0.0
- Pruritus NRS, Range, Difference [1, 5]: −8.0 to −0.0
- Pruritus VAS, Range, Difference [1, 5]: −7.7 to 1.5
- Skindex-16 emotional, Range, Difference [1, 5]: −34.0 to 0.0
- Skindex-16 functional, Range, Difference [1, 5]: −15.0 to 0.0
- Skindex-16 overall, Range, Difference [1, 5]: −58.0 to 0.0
- Skindex-16 symptom, Range, Difference [1, 5]: −19.0 to 0.0
- Total Body Lesion Count, Range, Difference [1, 5]: −570.0 to −4.0
- mCAILS, Range, Difference [1, 5]: −14.6 to −5.0
- BSA affected (%), Mean (SD), Difference [1, 6]: −3.9 (2.9) %
- Total Body Lesion Count, Mean (SD), Difference [1, 6]: −134.8 (157.0)
- mCAILS, Mean (SD), Difference [1, 6]: −10.6 (2.9)
- Pruritus NRS, Mean (SD), Difference [1, 7]: −5.3 (2.6)
- Pruritus VAS, Mean (SD), Difference [1, 7]: −5.0 (2.6)
- Pain NRS, Mean (SD), Difference ([1]; oral 2 mg once daily, baseline to week 16, ITT, P 0.005): −5.6 (2.7)
- Skindex-16 overall, Mean (SD), Difference ([1]; oral 2 mg once daily, baseline to week 16, ITT, P 0.008): −37.3(18.3)
- Pain NRS4, patients achieving ([1]; oral 2 mg once daily, week 16): 66.7%
- Pruritus NRS improvement >4 from baseline (NRS4), patients achieving ([1]; oral 2 mg once daily, week 16): 75.0%
- PGA Non-responsive (n, %) ([1]; oral 2 mg once daily, week 16, ITT, 12 patients): 16.7%
- PGA Responsive (n, %) ([1]; oral 2 mg once daily, week 16, ITT, 12 patients, response = PGA 0 to 3 with ≥50% score reduction): 83.3%
- BSA affected (%), Mean (SD), Week 16 ([1]; oral 2 mg once daily, week 16, ITT, baseline 4.9 (3.7), P 0.002): 1.0% and 1.0 (2.5) %
- Skindex-16 functional, Mean (SD), Week 16 ([1]; oral 2 mg once daily, week 16, ITT, baseline 11.6 (10.2), P 0.012): 4.5 (9.0)
- mCAILS, Mean (SD), Week 16 ([1]; oral 2 mg once daily, week 16, ITT, baseline 12.3 (3.2), P 0.002): 1.7 (3.3)
- Skindex-16 symptom, Mean (SD), Week 16 ([1]; oral 2 mg once daily, week 16, ITT, baseline 16.4 (6.0), P 0.005): 3.7 (7.0)
- Skindex-16 emotional, Mean (SD), Week 16 ([1]; oral 2 mg once daily, week 16, ITT, baseline 29.9 (9.0), P 0.003): 9.0 (12.4)
- Skindex-16 overall, Mean (SD), Week 16 ([1]; oral 2 mg once daily, week 16, ITT, baseline 59.0 (22.1), P 0.008): 16.9 (28.7)
- Skindex-16 functional, Range, Week 16 ([1]; oral 2 mg once daily, week 16, ITT, baseline range 0.0-30.0): 0.0-30.0
- BSA affected (%), Range, Week 16 ([1]; oral 2 mg once daily, week 16, ITT, baseline range 0.1-12.0): 0.0-8.5%
- Pruritus NRS, Range, Week 16 ([1]; oral 2 mg once daily, week 16, ITT, baseline range 1.0-10.0): 0.0-10.0
- Pruritus VAS, Range, Week 16 ([1]; oral 2 mg once daily, week 16, ITT, baseline range 2.7-8.8): 0.0-9.0
- Pain NRS, Range, Week 16 ([1]; oral 2 mg once daily, week 16, ITT, baseline range 4.0-10.0): 0.0-10.0
- Skindex-16 symptom, Range, Week 16 ([1]; oral 2 mg once daily, week 16, ITT, baseline range 4.0-24.0): 0.0-24.0
- Total Body Lesion Count, Range, Week 16 ([1]; oral 2 mg once daily, week 16, ITT, baseline range 4.0-600.0): 0.0-117.0
- mCAILS, Range, Week 16 ([1]; oral 2 mg once daily, week 16, ITT, baseline range 7.0-18.6): 0.0-8.9
- Skindex-16 emotional, Range, Week 16 ([1]; oral 2 mg once daily, week 16, ITT, baseline range 17.0-42.0): 0.0-42.0
- Skindex-16 overall, Range, Week 16 ([1]; oral 2 mg once daily, week 16, ITT, baseline range 35.0-96.0): 0.0-96.0
- Overall Skindex-16 score, mean decrease from baseline to week 16 ([1]; oral 2 mg once daily, SD 18.3, p=0.008): 37.3
- Treatment response (PGA), patients ([1]; week 20, after 4 weeks of being off-therapy): 100%
- Total adverse events ([2]; 12 patients, oral baricitinib): 12
- AEs leading to discontinuation ([2]; in vivo): No AEs led to the discontinuation
- Serious adverse events ([2]; in vivo): Serious adverse events did not occur
- Adverse events related / probably related to the study drug ([2]; low neutrophil count (neutropenia), mild, not deemed serious): one and A single AE of neutropenia
- AEs that were mild ([2]; of 12 AEs): 58.3%
- AEs that were moderate ([2]; of 12 AEs): 25.0%
- Adverse events unrelated or unlikely to be related to baricitinib ([2]; of 12 AEs): 11
- Absolute neutrophil count of the drug-related AE ([2]; the one mild AE deemed probably related to the study drug): 7.8e+08 L⁻¹
- Patients almost clear (PGA grade 1) [3]: 20.0%
- Patients completely clear of disease (PGA grade 0) [3]: 60.0%
- Patients with slight improvement (PGA grade 4) [3]: 20.0%
